# Assay results published in ChEMBL document CHEMBL4396916, “Novel potent substituted 4-amino-2-thiopyrimidines as dual VEGFR-2 and BRAF kinase inhibitors” (Eur J Med Chem, 2019).
# Assays:
# [1] = target: Vascular endothelial growth factor receptor 2 (Homo sapiens, UniProt P35968); assay: Inhibition of human N-terminal GST tagged VEGFR-2 expressed in baculovirus infected Sf9 cells using poly (Glu,Tyr) 4:1 as substrate in presence of ATP by Kinase-Glo luminescence assay
# [2] = target: Serine/threonine-protein kinase B-raf (Homo sapiens, UniProt P15056); assay: Inhibition of human wild type BRAF by Kinase-Glo luminescence assay
# CCRF-CEM = assay: Growth inhibition of human CCRF-CEM cells at 10 uM incubated for 48 hrs by sulforhodamine B assay relative to control; format: functional; conditions: read-out: GI
# K562 = assay: Growth inhibition of human K562 cells at 10 uM incubated for 48 hrs by sulforhodamine B assay relative to control; format: functional; conditions: K562, 48 h, read-out: GI
# MOLT-4 = assay: Growth inhibition of human MOLT4 cells at 10 uM incubated for 48 hrs by sulforhodamine B assay relative to control; format: functional; conditions: MOLT-4, 48 h, read-out: GI
# RPMI-8226 = assay: Growth inhibition of human RPMI8226 cells at 10 uM incubated for 48 hrs by sulforhodamine B assay relative to control; format: functional; conditions: RPMI-8226, 48 h, read-out: GI
# NCI-H226 = assay: Growth inhibition of human NCI-H226 cells at 10 uM incubated for 48 hrs by sulforhodamine B assay relative to control; format: functional; conditions: NCI-H226, 48 h, read-out: GI
# NCI-H23 = assay: Growth inhibition of human NCI-H23 cells at 10 uM incubated for 48 hrs by sulforhodamine B assay relative to control; format: functional; conditions: NCI-H23, 48 h, read-out: GI
# NCI-H522 = assay: Growth inhibition of human NCI-H522 cells at 10 uM incubated for 48 hrs by sulforhodamine B assay relative to control; format: functional; conditions: NCI-H522, 48 h, read-out: GI
# HCT-116 = assay: Growth inhibition of human HCT116 cells at 10 uM incubated for 48 hrs by sulforhodamine B assay relative to control; format: functional; conditions: HCT-116, 48 h, read-out: GI
# LOX IMVI = assay: Growth inhibition of human LOXIMVI cells at 10 uM incubated for 48 hrs by sulforhodamine B assay relative to control; format: functional; conditions: read-out: GI
# SK-MEL-5 = assay: Growth inhibition of human SK-MEL-5 cells at 10 uM incubated for 48 hrs by sulforhodamine B assay relative to control; format: functional; conditions: SK-MEL-5, 48 h, read-out: GI
# UACC-62 = assay: Growth inhibition of human UACC62 cells at 10 uM incubated for 48 hrs by sulforhodamine B assay relative to control; format: functional; conditions: UACC-62, 48 h, read-out: GI
# IGROV-1 = assay: Growth inhibition of human IGROV1 cells at 10 uM incubated for 48 hrs by sulforhodamine B assay relative to control; format: functional; conditions: IGROV-1, 48 h, read-out: GI
# OVCAR-4 = assay: Growth inhibition of human OVCAR4 cells at 10 uM incubated for 48 hrs by sulforhodamine B assay relative to control; format: functional; conditions: OVCAR-4, 48 h, read-out: GI
# OVCAR-8 = assay: Growth inhibition of human OVCAR8 cells at 10 uM incubated for 48 hrs by sulforhodamine B assay relative to control; format: functional; conditions: OVCAR-8, 48 h, read-out: GI
# NCI/ADR-RES = assay: Growth inhibition of human NCI/ADR-RES cells at 10 uM incubated for 48 hrs by sulforhodamine B assay relative to control; format: functional; conditions: read-out: GI
# ACHN = assay: Growth inhibition of human ACHN cells at 10 uM incubated for 48 hrs by sulforhodamine B assay relative to control; format: functional; conditions: read-out: GI
# CAKI-1 = assay: Growth inhibition of human Caki1 cells at 10 uM incubated for 48 hrs by sulforhodamine B assay relative to control; format: functional; conditions: CAKI-1, 48 h, read-out: GI
# RXF 393 = assay: Growth inhibition of human RXF393 cells at 10 uM incubated for 48 hrs by sulforhodamine B assay relative to control; format: functional; conditions: RXF 393, 48 h, read-out: GI
# UO-31 = assay: Growth inhibition of human UO31 cells at 10 uM incubated for 48 hrs by sulforhodamine B assay relative to control; format: functional; conditions: UO-31, 48 h, read-out: GI
# PC-3 = assay: Growth inhibition of human PC3 cells at 10 uM incubated for 48 hrs by sulforhodamine B assay relative to control; format: functional; conditions: PC-3, 48 h, read-out: GI
# MCF7 [3] = assay: Growth inhibition of human MCF7 cells at 10 uM incubated for 48 hrs by sulforhodamine B assay relative to control; format: functional; conditions: MCF7, 48 h, read-out: GI
# MDA-MB-231 = assay: Growth inhibition of human MDA-MB-231 cells at 10 uM incubated for 48 hrs by sulforhodamine B assay relative to control; format: functional; conditions: MDA-MB-231, 48 h, read-out: GI
# T47D [4] = assay: Growth inhibition of human T47D cells at 10 uM incubated for 48 hrs by sulforhodamine B assay relative to control; format: functional; conditions: read-out: GI
# MDA-MB-468 = assay: Growth inhibition of human MDA-MB-468 cells at 10 uM incubated for 48 hrs by sulforhodamine B assay relative to control; format: functional; conditions: MDA-MB-468, 48 h, read-out: GI
# MCF7 [5] = assay: Cytotoxicity against human MCF7 cells expressing VEGFR2 and wild type BRAF measured after 48 hrs by sulforhodamine B assay; format: functional, cell-based; conditions: MCF7, 48 h
# T47D [6] = assay: Cytotoxicity against human T47D cells expressing wild type BRAF measured after 48 hrs by sulforhodamine B assay; format: functional, cell-based
# MCF7 [7] = assay: Inhibition of VEGFR2 level in human MCF7 cells at 10 uM measured after 48 hrs by ELISA relative to control; format: functional; conditions: MCF7, 48 h
# EKVX = assay: Growth inhibition of human EKVX cells at 10 uM incubated for 48 hrs by sulforhodamine B assay relative to control; format: functional; conditions: read-out: GI
# HOP-62 = assay: Growth inhibition of human HOP62 cells at 10 uM incubated for 48 hrs by sulforhodamine B assay relative to control; format: functional; conditions: HOP-62, 48 h, read-out: GI
# SF-268 = assay: Growth inhibition of human SF268 cells at 10 uM incubated for 48 hrs by sulforhodamine B assay relative to control; format: functional; conditions: SF-268, 48 h, read-out: GI
# SF-539 = assay: Growth inhibition of human SF539 cells at 10 uM incubated for 48 hrs by sulforhodamine B assay relative to control; format: functional; conditions: SF-539, 48 h, read-out: GI
# SNB-19 = assay: Growth inhibition of human SNB19 cells at 10 uM incubated for 48 hrs by sulforhodamine B assay relative to control; format: functional; conditions: SNB-19, 48 h, read-out: GI
# SNB-75 = assay: Growth inhibition of human SNB75 cells at 10 uM incubated for 48 hrs by sulforhodamine B assay relative to control; format: functional; conditions: SNB-75, 48 h, read-out: GI
# A498 = assay: Growth inhibition of human A498 cells at 10 uM incubated for 48 hrs by sulforhodamine B assay relative to control; format: functional; conditions: A498, 48 h, read-out: GI
# HL-60(TB) = assay: Growth inhibition of human HL-60(TB) cells at 10 uM incubated for 48 hrs by sulforhodamine B assay relative to control; format: functional; conditions: HL-60, 48 h, read-out: GI
# A549 = assay: Growth inhibition of human A549/ATCC cells at 10 uM incubated for 48 hrs by sulforhodamine B assay relative to control; format: functional; conditions: A549, 48 h, read-out: GI
# SF-295 = assay: Growth inhibition of human SF295 cells at 10 uM incubated for 48 hrs by sulforhodamine B assay relative to control; format: functional; conditions: SF-295, 48 h, read-out: GI
# U-251 = assay: Growth inhibition of human U251 cells at 10 uM incubated for 48 hrs by sulforhodamine B assay relative to control; format: functional; conditions: U-251, 48 h, read-out: GI
# SK-OV-3 = assay: Growth inhibition of human SKOV3 cells at 10 uM incubated for 48 hrs by sulforhodamine B assay relative to control; format: functional; conditions: SK-OV-3, 48 h, read-out: GI
# SN12C = assay: Growth inhibition of human SN12C cells at 10 uM incubated for 48 hrs by sulforhodamine B assay relative to control; format: functional; conditions: read-out: GI
# Hs-578T = assay: Growth inhibition of human Hs578T cells at 10 uM incubated for 48 hrs by sulforhodamine B assay relative to control; format: functional; conditions: read-out: GI
# Chain of Vascular endothelial growth factor receptor 2 (P35968 whole entry): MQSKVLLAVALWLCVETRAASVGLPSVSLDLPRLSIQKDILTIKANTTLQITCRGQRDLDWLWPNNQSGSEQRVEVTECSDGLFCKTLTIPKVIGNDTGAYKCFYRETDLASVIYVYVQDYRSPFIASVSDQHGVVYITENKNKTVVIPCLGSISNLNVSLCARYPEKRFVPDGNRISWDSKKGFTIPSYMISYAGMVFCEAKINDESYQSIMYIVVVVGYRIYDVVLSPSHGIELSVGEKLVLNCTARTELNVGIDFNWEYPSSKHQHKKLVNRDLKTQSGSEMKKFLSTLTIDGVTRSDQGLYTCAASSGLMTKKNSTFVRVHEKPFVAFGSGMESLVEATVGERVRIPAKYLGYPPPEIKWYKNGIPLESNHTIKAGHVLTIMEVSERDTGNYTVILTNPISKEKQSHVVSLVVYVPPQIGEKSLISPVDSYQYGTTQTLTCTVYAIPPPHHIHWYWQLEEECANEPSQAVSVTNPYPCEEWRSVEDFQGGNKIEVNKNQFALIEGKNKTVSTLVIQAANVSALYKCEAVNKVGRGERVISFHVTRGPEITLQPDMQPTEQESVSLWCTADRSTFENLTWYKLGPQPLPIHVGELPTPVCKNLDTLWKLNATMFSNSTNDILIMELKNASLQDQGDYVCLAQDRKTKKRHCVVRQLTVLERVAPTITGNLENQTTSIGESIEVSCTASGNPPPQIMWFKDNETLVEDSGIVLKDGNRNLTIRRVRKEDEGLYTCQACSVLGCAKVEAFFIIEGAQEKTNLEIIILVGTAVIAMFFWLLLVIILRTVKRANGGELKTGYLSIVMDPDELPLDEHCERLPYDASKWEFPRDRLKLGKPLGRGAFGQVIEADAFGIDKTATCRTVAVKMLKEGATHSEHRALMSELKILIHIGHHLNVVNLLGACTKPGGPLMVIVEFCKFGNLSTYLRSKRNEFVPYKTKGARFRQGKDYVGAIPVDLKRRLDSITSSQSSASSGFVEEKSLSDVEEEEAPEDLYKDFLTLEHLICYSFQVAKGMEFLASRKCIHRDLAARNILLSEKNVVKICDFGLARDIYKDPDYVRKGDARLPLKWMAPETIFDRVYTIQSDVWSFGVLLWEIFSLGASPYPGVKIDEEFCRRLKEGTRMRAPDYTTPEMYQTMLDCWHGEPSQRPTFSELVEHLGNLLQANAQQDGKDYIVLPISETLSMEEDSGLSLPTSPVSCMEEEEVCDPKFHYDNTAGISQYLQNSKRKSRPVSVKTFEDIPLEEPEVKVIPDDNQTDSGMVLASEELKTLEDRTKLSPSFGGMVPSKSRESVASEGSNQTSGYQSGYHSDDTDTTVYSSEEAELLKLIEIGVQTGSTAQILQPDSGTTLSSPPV
# Chain of Serine/threonine-protein kinase B-raf (P15056 whole entry): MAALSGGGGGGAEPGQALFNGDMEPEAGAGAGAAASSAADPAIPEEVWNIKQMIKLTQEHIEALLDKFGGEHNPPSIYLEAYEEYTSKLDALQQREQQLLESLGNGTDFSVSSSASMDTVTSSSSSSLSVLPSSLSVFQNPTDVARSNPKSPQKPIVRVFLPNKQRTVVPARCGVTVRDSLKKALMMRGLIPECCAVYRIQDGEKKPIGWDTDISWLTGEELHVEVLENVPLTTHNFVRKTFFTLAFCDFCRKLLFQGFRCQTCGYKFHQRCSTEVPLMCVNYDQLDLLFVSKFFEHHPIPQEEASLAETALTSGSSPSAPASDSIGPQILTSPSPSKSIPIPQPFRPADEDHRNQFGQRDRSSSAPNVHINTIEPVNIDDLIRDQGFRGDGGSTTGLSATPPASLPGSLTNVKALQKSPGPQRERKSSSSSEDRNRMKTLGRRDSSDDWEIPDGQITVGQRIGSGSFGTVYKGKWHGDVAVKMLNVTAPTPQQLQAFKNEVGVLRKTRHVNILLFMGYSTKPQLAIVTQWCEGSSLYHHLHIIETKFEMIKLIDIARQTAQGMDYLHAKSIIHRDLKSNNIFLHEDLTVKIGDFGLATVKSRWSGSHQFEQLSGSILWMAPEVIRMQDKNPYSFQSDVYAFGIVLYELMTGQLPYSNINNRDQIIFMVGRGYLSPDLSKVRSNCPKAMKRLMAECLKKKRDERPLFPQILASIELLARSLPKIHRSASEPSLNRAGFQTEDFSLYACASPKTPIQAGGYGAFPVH
SMILES,IC50 [1],inhibition of growth at 10 µM (CCRF-CEM),inhibition of growth at 10 µM (K562),inhibition of growth at 10 µM (MOLT-4),inhibition of growth at 10 µM (RPMI-8226),inhibition of growth at 10 µM (NCI-H226),inhibition of growth at 10 µM (NCI-H23),inhibition of growth at 10 µM (NCI-H522),inhibition of growth at 10 µM (HCT-116),inhibition of growth at 10 µM (LOX IMVI),inhibition of growth at 10 µM (SK-MEL-5),inhibition of growth at 10 µM (UACC-62),inhibition of growth at 10 µM (IGROV-1),inhibition of growth at 10 µM (ACHN),inhibition of growth at 10 µM (CAKI-1),inhibition of growth at 10 µM (UO-31),inhibition of growth at 10 µM (PC-3),inhibition of growth at 10 µM (MDA-MB-231),inhibition of growth at 10 µM (MDA-MB-468),IC50 (MCF7 [5]),other results
COc1ccc(C(=O)CSc2nccc(Nc3ccc(N4CCOCC4)cc3)n2)cc1,0.29 µM,21%,21%,34%,45%,13%,15%,34%,18%,11%,53%,30%,12%,11%,16%,35%,16%,11%,13%,23 µM,IC50 [2]: 0.44 µM; inhibition of growth at 10 µM (OVCAR-4): 15%; inhibition of growth at 10 µM (OVCAR-8): 24%; inhibition of growth at 10 µM (NCI/ADR-RES): 24%; inhibition of growth at 10 µM (RXF 393): 10%; inhibition of growth at 10 µM (MCF7 [3]): 17%; inhibition of growth at 10 µM (T47D [4]): 67%; IC50 (T47D [6]): 4.36 µM; inhibition at 10 µM (MCF7 [7]): 52%
O=C(CSc1nccc(Nc2ccc(N3CCOCC3)cc2)n1)c1ccc(Cl)cc1,1.9 µM,13%,10%,,10%,13%,19%,22%,,,,10%,17%,10%,23%,26%,12%,10%,19%,73.3 µM,inhibition of growth at 10 µM (EKVX): 10%; inhibition of growth at 10 µM (HOP-62): 37%; inhibition of growth at 10 µM (SF-268): 15%; inhibition of growth at 10 µM (SF-539): 15%; inhibition of growth at 10 µM (SNB-19): 19%; inhibition of growth at 10 µM (SNB-75): 36%; inhibition of growth at 10 µM (OVCAR-8): 17%; inhibition of growth at 10 µM (A498): 13%
CC(=O)c1cccc(Nc2ccnc(SCC(=O)c3ccc(C(F)(F)F)cc3)n2)c1,> 10 µM,10%,29%,24%,31%,24%,21%,27%,28%,13%,14%,29%,44%,19%,42%,57%,30%,22%,16%,28.2 µM,inhibition of growth at 10 µM (HL-60(TB)): < 10%; inhibition of growth at 10 µM (A549): 12%; inhibition of growth at 10 µM (EKVX): 28%; inhibition of growth at 10 µM (HOP-62): 17%; inhibition of growth at 10 µM (SF-295): 15%; inhibition of growth at 10 µM (SNB-19): 10%; inhibition of growth at 10 µM (SNB-75): 32%; inhibition of growth at 10 µM (U-251): 12%; inhibition of growth at 10 µM (NCI/ADR-RES): 11%; inhibition of growth at 10 µM (SK-OV-3): 21%; inhibition of growth at 10 µM (RXF 393): 11%; inhibition of growth at 10 µM (SN12C): 17%; inhibition of growth at 10 µM (MCF7 [3]): 26%; inhibition of growth at 10 µM (Hs-578T): 11%; inhibition of growth at 10 µM (T47D [4]): 37%; IC50 (T47D [6]): 17.1 µM
